Test [1] relates to RH7777 rat hepatoma cells. Nature of the test: SRB cytotoxicity assay, RH7777 control cell line. It is filed as cell-based. The settings on record: for IC50: read-out: IC50 RH7777. The essentials: (§1)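 Antiproliferative effect was assessed by SRB assay after cells had been exposed for 96 h to a concentration series from 0 to 100 μM. Fixed, stained cells were quantified at 540 nm.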

For test [2], the system named is LNCaP human prostate cancer cells. Put plainly: SRB cytotoxicity assay, LNCaP. As to conditions: 96 h; for IC50: read-out: IC50 LNCaP. It counts as cell-based. The essentials: as §1
In test [3] the test system is PPC-1 human prostate cancer cells. Nature of the test: SRB cytotoxicity assay, PPC-1. It is filed as cell-based. As to conditions: 96 h, read-out: IC50 PPC-1. The essentials: as §1
The test system of test [4] is TSU-Pr1 human prostate cancer cells. Put plainly: SRB cytotoxicity assay, TSU-Pr1. The settings on record: 96 h. It counts as cell-based. The essentials:
as §1

The subject of test [5] is CHO cells (CHO-1, CHO-K1). Nature of the test: SRB cytotoxicity assay, CHO. It is filed as cell-based. As to conditions: Table 9; negative control cell line; 96 h. Here is the method:
(§2) For in vitro cytotoxicity screening, 1000 to 5000 cells were plated into each well of 96-well plates depending on growth rate, and exposed to different concentrations of a test compound for 96 h in three to five replicates. All the compounds were dissolved in dimethyl sulfoxide at 5 to 20 mM, and diluted to desired concentrations in complete culture medium. Cell numbers at the end of the drug treatment were measured by the SRB assay (Gududuru et al., “Synthesis and Biological Evaluation of Novel Cytotoxic Phospholipids for Prostate Cancer,” Bioorg. Med. Chem. Lett. 14:4919-4923 (2004); Rubinstein et at., “Comparison of in vitro Anticancer-Drug-Screening Data Generated with a Tetrazolium Assay Versus a Protein Assay Against a Diverse Panel of Human Tumor Cell Lines,” J. Naatl, Cancer Inst. 82:1113-1118 (1990), each of which is hereby incorporated by reference in its entirety). Briefly, the cells were fixed with 10% of trichloroacetic acid, stained with 0.4% SRB, and the absorbances at 540 nm was measured using a plate reader (DYNEX Technologies, Chantilly, Va.).
(§3) In vitro cytotoxicity assay was performed by the same sulforhodamine B (SRB) assay (described above). The compounds shown in Table 8 below where tested for activity against the breast cancer and ovarian cancer cell lines.
Cells were exposed to a wide range of concentrations (0 to 100 μM) of the particular compound for 96 h in 96 well plates. Cells were fixed with 10% trichloroacetic acid, washed five times with water. The plates were air dried overnight and fixed cells were stained with SRB solution. The cellular protein-bound SRB was measured at 540 nm using a plate reader. Cell numbers at the end of the treatment were measured.
Cells were exposed to a wide range of concentrations (0 to 100 μM) of the particular compound for 96 h in 96-well plates. Cells were fixed with 10% trichloroacetic acid, washed five times with water. The plates were air dried overnight and fixed cells were stained with SRB solution. The cellular protein-bound SRB was measured at 540 nm using a plate reader. Cell numbers at the end of the treatment were calculated as a percentage of untreated control.

In test [6] the test system is five human prostate cancer cell lines (DU-145, PC-3, LNCaP, PPC-1, TSU-Pr1). Put plainly: SRB cytotoxicity assay, statements over several cell lines. It counts as cell-based. Here is the method: as §2
The antiproliferative activity of all the synthesized compounds was evaluated against five human prostate cancer cell lines and in RH7777 cells (negative control) using the sulforhodamine B (SRB) assay (see description in Example 5 above). […]

Test [7] deals with DU-145 human prostate cancer cells. Nature of the test: SRB cytotoxicity assay, DU-145. It counts as cell-based. The settings on record: 96 h. In a few lines: as §1
The test system of test [8] is PC-3 human prostate cancer cells. Nature of the test: SRB cytotoxicity assay, PC-3. It is filed as cell-based. As to conditions: 96 h, read-out: IC50 PC-3. In a few lines: as §1
Test [9] relates to human breast cancer cell line (MCF-7). Nature of the test: SRB cytotoxicity assay, MCF-7. It counts as cell-based. The settings on record: Homo sapiens, MCF7, read-out: IC50 MCF-7. The essentials: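 Cells plated at 1000–5000 per well by growth rate and exposed to compound (0 to 100 μM) for 96 h, three to five replicates. Cell number read by sulforhodamine B: TCA fixation, 0.4% SRB staining, absorbance at 540 nm.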

Test [10] deals with CaOv-3 human ovarian cancer cell line. Nature of the test: SRB cytotoxicity assay, CaOv-3. It counts as cell-based. The settings on record: Homo sapiens, Caov-3; Table 8. As to the method: as §2, §3
For test [11], the system named is OVCAR-3 human ovarian cancer cell line. Put plainly: SRB cytotoxicity assay, OVCAR-3. The settings on record: Homo sapiens, OVCAR-3; Table 8. It counts as cell-based. As to the method:
as §2, §3

Test [12] relates to SKOv-3 human ovarian cancer cell line. Nature of the test: SRB cytotoxicity assay, SKOv-3. It counts as cell-based. As to conditions: Homo sapiens, SK-OV-3; Table 8. As to the method:
as §2, §3

The next test deals with PC-3 cells. Nature of the test: Apoptosis sandwich ELISA (DNA-histone complex), PC-3. It counts as cell-based, human. As to the method: (§4) A sandwich ELISA (Roche, Mannheim, Germany) utilizing monoclonal antibodies specific for DNA and histones was used to quantify degree of apoptosis induced by the analogs after 72 h exposure. This assay measures DNA-histone complexes (mono- and oligonucleosomes) released into cytoplasm from the nucleus during apoptosis. RH7777 cells were employed because of nonspecific cytotoxicity of compound 4 in receptor-negative cells as well as receptor-positive prostate cancer cells.
(§5) From the LPL receptor mRNA expression studies (Table 2), it was evident that these cell lines serve as an excellent model system to explore the effects of LPL receptor. Given the structural similarity of SAPs to ceramide (and the known ability of ceramide to induce apoptosis), it was then determined whether the antiproliferative effects of thiazolidine analogs were mediated via apoptotla events. The ability of the analogs to induce apoptosis in LNCaP, PC-3, and RH7777 cells was examined using a quantitative sandwich ELISA that measures DNA-histone complex released during apoptosis. The enrichment factor calculated (as ratio of OD405 in treated and un-treated cells) provides a quantitative assessment of the degree of apoptosis induced. Initially, only two compounds (4 & 5) were used for this study. Apoptotic activity of analog (compound 4) was selective in prostate cancer cells despite nonselective cytotoxicity in RH7777 negative control cells (see Table 5 below). Analog compound 5 induced apoptosis in PC-3 and LNCaP cells, but to a lesser extent in PC-3 cells perhaps due to lower potency in this cell line.

The subject of test [13] is LNCaP cells. Put plainly: Apoptosis sandwich ELISA (DNA-histone complex), LNCaP. It is filed as cell-based, human. As to the method: as §4, §5
The next test concerns RH7777 cells. Nature of the test: Apoptosis sandwich ELISA (DNA-histone complex), RH7777. It counts as cell-based, rat. Here is the method:
as §4, §5

Test [14] concerns LNCaP cells. Nature of the test: DNA fragmentation by agarose gel electrophoresis. It counts as cell-based, human. As to conditions: treated 24 to […], FIGS. 4A-B. As to the method: In FIG. 4B, the dose and exposure time are indicated for compound 5 as follows: lane 1, 100 bp DNA marker; lane 2, […] for 24 h; lane 3, 5 μM for 48 h; lane 4, 5 μM for 72 h; lane 5, 5 μM for 96 h; lane 6, 3 μM for 96 h; lane 7, 8 μM for 48 h; and lane 8, 8 μM for 72 h;

Setting [15] is: Table 9, negative control cell line, 96 h.
Setting [16] is: Rattus norvegicus, RH7777, Example 10 table, 0 to 100 μM for 96 h.
Setting [17] is: Homo sapiens, DU-145, read-out: IC50 DU-145, Example 10 table.
The mark [18] stands for this setting: Homo sapiens, LNCaP, Example 10 table.
[19] abbreviates: Homo sapiens, PPC-1, Example 10 table.
[20] abbreviates: Homo sapiens, TSU-Pr1, Example 10 table, read-out: IC50 TSU-Pr1.
Where [21] appears, read: Table 8, breast cancer cell line.

Consider 7 compounds from patent US20060014740A1 (priority 2003, published 2006).

Like-named read-outs stand apart in the source and are kept apart here.

For `CCCCCCCCC=CCCCCCCCC(=O)NCCO` [compound 319], the IC50 in test [1] (setting [15]), in test [3] (Table 9) and in test [5] was over 20 µM throughout. Also, in test [2] (Table 9), the “IC50 LNCaP” value is recorded as “Not Active”. Moreover, in test [4] (Table 9), the “IC50 TSU” value is given as “Not”. The “Activity against DU-145, PC-3, and LNCaP prostate cancer cell lines” value in [6] is reported as “did not show any activity”.
For the compound `CCCCCCCCC=CCCCCCCCCNC(=O)C(N)CO` (stereo not shown) [compound 309], the IC50 was determined as 6.8 µM in test [1] (setting [15]); 6.9 µM in test [7] (read-out: IC50 DU-145, Table 9); 5.9 µM in test [8] (Table 9); 6.6 µM in test [2] (Table 9); 5.1 µM in [3] (Table 9); 5.5 µM in test [4] (Table 9, read-out: IC50 TSU). In [5], the IC50 is 5.2 µM.
As for `CCCCCCCCCCCCCCNC(=O)[C@@H]1CSC(c2ccccc2)N1.Cl` (mixture of isomers) [Compound 4-HCI, (2RS, 4R)-2-Phenylthiazolidine-4-carboxylic acid tetradecylamide Hydrochloride], the “Fold less selective against RH7777 cell line than compound 5” value in test [1] is on record as 8 fold. In addition, the IC50 in [1] (setting [16]) worked out at 3.4 µM; in test [7] (setting [17]), 2.4 µM; in [8] (Homo sapiens, Example 10 table), 3 µM; in [2] (setting [18]) it was 1.4 µM; in [3] (setting [19]), 1.3 µM; in test [4] (setting [20]) it was 2 µM. Further, the IC50 is 4.2 µM in test [9] (Example 10 table, 96 h); 2.4 µM in test [9] (setting [21]); 13.9 µM in test [10]; 1.6 µM in [11]; 2.1 µM in test [12]. Further, the “Apoptosis enrichment factor (ratio of OD405 in treated and un-treated cells)” value came to 1.8 in the test with PC-3 cells (2 μM for 72 h); 18.7 in the test on PC-3 cells (5 μM for 72 h); 54.0 with PC-3 cells (10 μM for 72 h); 14.1 with LNCaP cells [13] (2 μM for 72 h); 75.4 in the test with LNCaP cells [13] (5 μM for 72 h); 80.7 in the test with LNCaP cells [13] (10 μM for 72 h). The “Apoptosis enrichment factor (ratio of OD405 in treated and un-treated cells)” value with RH7777 cells (2 μM for 72 h) stood at 2.6; with RH7777 cells (5 μM for 72 h), 3.2; in the test with RH7777 cells (10 μM for 72 h), 2.5. Besides, the “DNA fragmentation (apoptosis)” value in the test with LNCaP cells [14] is listed as “induce cell apoptosis”.
Regarding `CCCCCCCCCCCCCCCCCCNC(=O)[C@@H]1CSC(c2ccccc2)N1.Cl` (mixture of isomers) [Compound 5-HCI, (2RS, 4R)-2-Phenylthiazolidine-4-carboxylic acid octadecylamide Hydrochloride], the IC50 is 25.6 µM in test [1] (setting [16]); 5.4 µM in test [7] (setting [17]); 7.8 µM in [8] (Homo sapiens, Example 10 table); 2.1 µM in [2] (setting [18]); 2 µM in test [3] (setting [19]); 5 µM in [4] (setting [20]). The IC50 in test [9] (Example 10 table, 96 h) was found to be 4.2 µM; in test [9] (setting [21]), 4.2 µM; in test [10], 2.5 µM; in test [11], 4.5 µM; in test [12], 8.5 µM. Also, the “Apoptosis enrichment factor (ratio of OD405 in treated and un-treated cells)” value is reported as 1.4 in the test with PC-3 cells (2 μM for 72 h); 2.3 in the test with PC-3 cells (5 μM for 72 h); 3.4 with PC-3 cells (10 μM for 72 h); 12.7 in the test with PC-3 cells (20 μM for 72 h); 4.5 in the test with LNCaP cells [13] (2 μM for 72 h); 45.2 in the test on LNCaP cells [13] (5 μM for 72 h). In addition, the “Apoptosis enrichment factor (ratio of OD405 in treated and un-treated cells)” value is reported as 37.1 with LNCaP cells [13] (10 μM for 72 h) and 26.1 with LNCaP cells [13] (20 μM for 72 h). For the same compound, the “DNA fragmentation (apoptosis)” value with LNCaP cells [14] was “induce cell apoptosis”.
As for `CCCCCCCCCCCCCCCCCCNC(=O)c1csc(-c2ccccc2)n1` [Compound 34, 2-phenylthiazole-4-carboxylic acid octadecylamide], the IC50 in test [1] (Rattus norvegicus, RH7777, Table 4, control cell line, 96 h) was over 20 µM; in test [7] (Homo sapiens, DU-145, read-out: IC50 DU-145, Table 4) it was over 20 µM; in [8] (Homo sapiens, Table 4) it was over 20 µM; in [2] (Homo sapiens, LNCaP, Table 4) it was over 20 µM; in test [3] (Homo sapiens, PPC-1, Table 4), over 20 µM; in [4] (Homo sapiens, TSU-Pr1, Table 4, read-out: IC50 TSU-Pr1) it was over 20 µM. Moreover, the IC50 in test [9] (setting [21]) was over 20 µM; in test [6] (both prostate and RH7777 cells, read-out: No activity below (concentration)), over 20 µM.
As to `CCCCCCCCCCCCCCCCCCNC[C@@H](N)CO` [compound 317], the IC50 was 2.9 µM in test [1] (setting [15]); 4.1 µM in test [7] (read-out: IC50 DU-145, Table 9); 2.6 µM in test [8] (Table 9); 5.1 µM in test [2] (Table 9); 1.9 µM in [3] (Table 9); 2.2 µM in [4] (Table 9, read-out: IC50 TSU). The IC50 in [5] is 2.2 µM.
Consider `CCCCCCCCNC(=O)C(CO)NC(=O)CCCCCCC` (stereo not shown) [315d], for which the IC50 is over 100 µM in test [7] (read-out: IC50 DU-145, Table 9); 81.5 µM in test [8] (Table 9); over 100 µM in [2] (Table 9); 81.2 µM in [3] (Table 9); 93.8 µM in test [4] (Table 9, read-out: IC50 TSU); over 100 µM in test [5].
